Experimental findings from patent US6967196B1, “Sulfonamide compounds and uses thereof” (Bristol-Myers Squibb Company, priority 1999, dated 2005) are described below.

Structures can show the parent of a compound that is named as a salt.

One assay has as its system amyloid β production in transfected H4 (human neuroglioma) cells stably expressing APP constructs. As to the kind of experiment: In vitro cell-based assay of inhibitors of amyloid β production (ELISA). Conditions: Homo sapiens, 16 h, transfected H4 cells expressing APP, approximately 16 hours incubation, amyloid β in medium by ELISA; read-out: ACTIVITY (IC50, inhibition of amyloid β production). In outline:
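Aβ secreted into the medium was determined by a two-antibody ELISA specific for the Aβ C-terminus, calibrated with known Aβ amounts. Before that, compounds (10-100 μM initially) were left on the cells for roughly 16 hours.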
A general note: In an ELISA, binding on a coated surface is turned into a signal by an enzyme label.
In the case of `Cc1ccc(CCNC(=O)[C@@H](C)N(c2cc(Cl)ccc2F)S(=O)(=O)c2ccc(Cl)cc2)cc1` [Example 1325], the IC50 is greater than 500 nM.

For the compound `C[C@H](CCCOC(=O)NCCn1ccnc1)N(c1cc(Cl)ccc1CO)S(=O)(=O)c1ccc(Cl)cc1` [Example 1292], the IC50 was greater than 10000 nM.

For the compound `C[C@H](C(=O)NC1Cc2ccccc2C1)N(c1cc(Cl)ccc1F)S(=O)(=O)c1ccc(Cl)cc1` [Example 1310], the IC50 is greater than 500 nM.

On to `CCNC(=O)OCC(C)N(c1cc(Cl)ccc1CO)S(=O)(=O)c1ccc(Cl)cc1` (stereo not drawn) [Example 1279], for which the IC50 is no more than 25 nM.

The assay is the same for the next values; noted with them: Homo sapiens, 16 h, transfected H4 cells stably expressing APP constructs; approximately 16 hours incubation; amyloid β in medium by ELISA; read-out: ACTIVITY (IC50, inhibition of amyloid β production).
Regarding `C[C@H](CCCNC(=O)C(C)(C)C)N(c1cc(Cl)ccc1Cl)S(=O)(=O)c1ccc(Cl)cc1` (stereo in doubt) [Example 1137, 4-chloro-N-(2,5-dichlorophenyl)-N-[4-[[(1,1-dimethylethyl)carbonyl]amino]-1-methylbutyl]benzenesulfonamide], the IC50 is 100 to 500 nM.

With `C[C@H](COC(=O)N1CCCC1)N(c1cc(F)ccc1F)S(=O)(=O)c1ccc(Cl)cc1` [Example 1238, 4-Chloro-N-(2,5-difluorophenyl)-N-[2-[[[pyrrolidin-1-yl]carbonyl]oxy]-R-1-methylethyl]benzenesulfonamide], the IC50 was no more than 25 nM.

As to `C[C@H](CCCS(N)(=O)=O)N(c1cc(Cl)ccc1Cl)S(=O)(=O)c1ccc(Cl)cc1` [Example 1210, N-[4-(aminosulfonyl)-1(R)-methylbutyl]-4-chloro-N-(2,5-dichlorophenyl)benzenesulfonamide], the IC50 was no more than 25 nM.

Staying with this assay, now noted: Homo sapiens, 16 h, transfected H4 cells stably expressing APP; approx. 16 h incubation; amyloid β in medium by ELISA; read-out: ACTIVITY (IC50, inhibition of amyloid β production).
As to `O=S(=O)(c1ccc(Cl)cc1)N(Cc1ccccc1OCCCN1CCCCC1)c1ccc(Cl)cc1Cl` [Example 706, 4-chloro-N-(2,4-dichlorophenyl)-N-{2-[3-(1-piperidinyl)propoxy]benzyl}benzenesulfonamide hydrochloride], the IC50 lay in the range of 100 to 500 nM.

For the compound `CCN(CCOc1ccccc1C(C)N(c1cc(F)ccc1F)S(=O)(=O)c1ccc(Cl)cc1)C(=O)NC(C)(C)C` (stereo not drawn) [Example 709, N-[1-(2-{2-[[(tert-butylamino)carbonyl](ethyl)amino]ethoxy}phenyl)ethyl]-4-chloro-N-(2,5 difluorophenyl)benzenesulfonamide], the IC50 lay in the range of 100 to 500 nM.

Turning to `O=S(=O)(c1ccc(Cl)cc1)N(Cc1ccccc1OCCCN1CCC(O)CC1)c1ccccc1` [Example 645, 4-chloro-N-{2-[3-(4-hydroxy-1-piperidinyl)propoxy]benzyl}-N-phenylbenzenesulfonamide hydrochloride], the IC50 lay in the range of 100 to 500 nM.

`O=S(=O)(c1ccc(Cl)cc1)N(Cc1ccccc1Cn1ncnn1)c1cc(F)ccc1F` [Example 751, 4-chloro-N-(2,5-difluorophenyl)-N-[2-(2H-tetraazol-2-ylmethyl)benzyl]benzenesulfonamide]: the IC50 was in the range of 100 to 500 nM.

Staying with this assay, now noted: Homo sapiens, 16 h, transfected H4 cells stably expressing APP; approximately 16 hours incubation; amyloid β in medium by ELISA; Table B; read-out: ACTIVITY (IC50, inhibition of amyloid β production).
On to `O=S(=O)(c1ccc(Cl)cc1)N(Cc1ccccc1OCCC[S+]([O-])C1CCCCC1)c1cc(F)ccc1F` (stereo not drawn) [Example 407, 4-chloro-N-{2-[3-(cyclohexylsulfinyl)propoxy]benzyl}-N-(2,5-difluorophenyl)benzenesulfonamide], for which the IC50 lay in the range of 50 to 100 nM.

As to `C[C@H](c1ccccc1CCC(=O)NCc1ccc2c(c1)OCO2)N(c1cc(F)ccc1F)S(=O)(=O)c1ccc(Cl)cc1` [Example 388, N-(1,3-benzodioxol-5-ylmethyl)-3-[2-((1R)-1-{[(4-chlorophenyl)sulfonyl]-2,5-difluoroanilino}ethyl)phenyl]propanamide], the IC50 is 50 to 100 nM.

The same assay, now with this note: Homo sapiens, 16 h, transfected H4 cells stably expressing APP; approximately 16 hours incubation; amyloid β in medium by ELISA; read-out: ACTIVITY (IC50, inhibition of amyloid β production).
`CC(C)(C)OC(=O)n1c(-c2ccccc2OCCCN2CCCCC2)cc2ccccc21` [Example 1021, tert-butyl 2-{2-[3-(1-piperidinyl)propoxy]phenyl}-1H-indole-1-carboxylate trifluoroacetate]: the IC50 was greater than 500 nM.

Consider `C=CCOc1ccccc1CN(c1ccccc1)S(=O)(=O)c1ccc(Cl)cc1` [Example 1001, N-[2-(allyloxy)benzyl]-4-chloro-N-phenylbenzenesulfonamide], for which the IC50 is greater than 500 nM.

On to `O=S(=O)(c1ccc(Cl)cc1)N(Cc1ccccc1OCCCN1CCCC(O)C1)c1ccccc1` (stereo not drawn) [Example 915, 4-chloro-N-{2-[3-(3-hydroxy-1-piperidinyl)propoxy]benzyl}-N-phenylbenzenesulfonamide hydrochloride], for which the IC50 is greater than 500 nM.

As for `O=S(=O)(Cc1ccccc1)N(Cc1ccccc1OCCCN1CCCCC1)c1cc(Cl)ccc1Cl` [Example 992, N-(2,5-dichlorophenyl)(phenyl)-N-{2-[3-(1-piperidinyl)propoxy]benzyl}methanesulfonamide hydrochloride], the IC50 was greater than 500 nM.

The same assay, now with this note: Table B; transfected H4 cells stably expressing APP; approximately 16 hours incubation; amyloid β in medium by ELISA; read-out: ACTIVITY (inhibitory concentration IC50, inhibition of amyloid β production).
Take `c1cn(CCCNCC2CC2)cn1` [Example 58, N-cyclopropylmethyl-3-(1H)-imidazolylpropylamine]: the IC50 is no more than 25 nM.

The assay is the same for the next values; noted with them: transfected H4 cells stably expressing APP constructs; approximately 16 hours incubation; amyloid β in medium by ELISA; read-out: ACTIVITY (IC50, inhibition of amyloid β production).
Take `CC(C)S(=O)(=O)CCC[C@@H](C)N(c1cc(Cl)ccc1CO)S(=O)(=O)c1ccc(Cl)cc1` [Example 1220]: the IC50 is no more than 25 nM.

As for `C[C@H](CCCCN1CCC(CS(C)(=O)=O)CC1)N(c1cc(Cl)ccc1Cl)S(=O)(=O)c1ccc(Cl)cc1` [Example 1150, 4-chloro-N-(2,5-dichlorophenyl)-N-[5-[[4-(methylsulfonyl)methyl]-1-piperidinyl]-1(R)-methylpentyl]benzenesulfonamide], the IC50 lay in the range of 100 to 500 nM.

With `COC(=O)[C@H](CC(C)C)NC(=O)CCCC[C@@H](C)N(c1cc(Cl)ccc1F)S(=O)(=O)c1ccc(Cl)cc1` [Example 1258, (R)-4-Chloro-N-(5-chloro-2-fluorophenyl)-N-[6-[N-(S)-[1-(methoxycarbonyl)-3-methylbutyl]amino]-1-methyl-6-oxohexyl]benzenesulfonamide], the IC50 was no more than 25 nM.

Consider `COC(=O)[C@H](NC(=O)CCC[C@@H](C)N(c1cc(Cl)ccc1F)S(=O)(=O)c1ccc(Cl)cc1)C(C)C` [Example 1266, (R)-4-Chloro-N-(5-chloro-2-fluorophenyl)-N-[5-[N-(R)-[1-(methoxycarbonyl)-2-methylpropyl]amino]-1-methyl-5-oxopentyl]benzenesulfonamide], for which the IC50 is no more than 25 nM.

For the compound `C[C@H](CCCNC(=O)[C@H](O)c1ccccc1)N(c1cc(Cl)ccc1Cl)S(=O)(=O)c1ccc(Cl)cc1` [Example 1129], the IC50 lay in the range of 50 to 100 nM.

The assay is the same for the next values; noted with them: transfected H4 cells stably expressing APP; approx. 16 h incubation; amyloid β in medium by ELISA; read-out: ACTIVITY (IC50, inhibition of amyloid β production).
On to “2-((1R)-1-{[(4-chlorophenyl)sulfonyl]-2,5-difluoroanilino}ethyl)benzyl 2,5-difluorobenzylcarbamate [Example 639]”, for which the IC50 was 100 to 500 nM.

For “2-[2-((1R)-1-{[(4-chlorophenyl)sulfonyl]-2,5-difluoroanilino}ethyl)phenyl]ethyl sec-butylcarbamate [Example 650]”, the IC50 was 100 to 500 nM.

Consider “N-{3-[2-(1-{[(4-chlorophenyl)sulfonyl]-2,5-difluoroanilino}ethyl)phenoxy]propyl}-2-phenylcyclopropanecarboxamide [Example 789]”, for which the IC50 lay in the range of 100 to 500 nM.

`CCNC(=O)N(C)CCOc1ccccc1C(C)N(c1cc(F)ccc1F)S(=O)(=O)c1ccc(Cl)cc1` (stereo not drawn) [Example 801, 4-chloro-N-(2,5-difluorophenyl)-N-[1-(2-{3-[[(ethylamino)carbonyl](methyl)amino]ethoxy}phenyl)ethyl]benzenesulfonamide]: the IC50 fell in the range of 100 to 500 nM.

On to “N-{3-[2-(1-{[(4-chlorophenyl)sulfonyl]-2,5-difluoroanilino}ethyl)phenoxy]propyl}-N-methyl-4-propylbenzamide [Example 656]”, for which the IC50 is 100 to 500 nM.

The same assay, now with this note: transfected H4 cells stably expressing APP; approximately 16 hours incubation; amyloid β in medium by ELISA; read-out: ACTIVITY (IC50, inhibition of amyloid β production).
With “4-benzoyl-N-((1S)-1-{{(3-[2-({[(4-chlorophenyl)sulfonyl]-2,5-difluoroanilino}methyl)phenoxy]propyl}(methyl)amino]carbonyl}-5-{[5-(2-oxohexahydro- [Example 1053]”, the IC50 is greater than 500 nM.

Consider “N-{4-[2-(1-{[(4-chlorophenyl)sulfonyl]-2,5-difluoroanilino}ethyl)phenoxy]butyl}-N-methyl-1-adamantanecarboxamide [Example 846]”, for which the IC50 is 100 to 500 nM.

Turning to “N-{3-[2-({[(4-chlorophenyl)sulfonyl]-2,5-difluoroanilino}ethyl)phenoxy]propyl}-3,4,5-trimethoxy-N-methylbenzamide [Example 913]”, the IC50 is greater than 500 nM.

For the compound `O=S1(=O)c2ccc(Cl)cc2-c2ccccc2N1Cc1ccccc1OCCCN1CCCCC1` [Example 948, 2-chloro-5-{2-[3-(1-piperidinyl)propoxy]benzyl}-6H-dibenzo]c,e][1,2]thiazine 5,5-dioxide hydrochloride], the IC50 was greater than 500 nM.

Consider “3-chloro-N-{3-[2-(1-{[(4-chlorophenyl)sulfonyl]-2,5-difluoroanilino}ethyl)phenoxy]propyl}benzamide [Example 900]”, for which the IC50 is greater than 500 nM.
